Legend:
Format in all cases: cell-based
IFN = experiment: Cytokine Induction in Human Cells: interferon (IFN) secreted by PBMCs, A549/encephalomyocarditis bioassay; conditions: 18 to 24 hours; further: call rule not given here
Method in brief: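 Human PBMCs from healthy donors at 1.5-2×10^6 cells/mL in RPMI with 10% FBS, exposed to compounds (typically 0.1 to 100 μM, ≤1% DMSO) for 18 to 24 h at 37° C. Secreted IFN measured by A549/encephalomyocarditis virus cytopathic-effect bioassay, in alpha reference units/mL against NIH human leukocyte IFN standard.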

TNF = experiment: Cytokine Induction in Human Cells: tumor necrosis factor (TNF) secreted by PBMCs, ELISA; conditions: 18 to 24 hours; further: call rule not given here
Method in brief: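 Human donor PBMCs at 1.5-2×10^6 cells/mL in RPMI with 10% FBS were exposed to compound, generally at 0.1 to 100 μM (≤1% DMSO final), for 18 to 24 h at 37 °C. Secreted TNF in supernatant was measured by ELISA and reported as pg/mL.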

interferon α = experiment: Interferon (α) Induction in Human Cells (PBM's, 48 hours, A549 bioassay); design: key: +: indicates that the compound induced interferon α at that particular concentration; −: indicates that the compound did not induce interferon α at that particular concentration; ±: indicates that the results were equivocal at that particular concentration; conditions: 48 hours incubation
Method: An in vitro human blood cell system was used to assess interferon induction by compounds of the invention. Activity is based on the measurement of interferon secreted into culture media. Interferon is measured by bioassay.
Whole blood was collected by venipuncture into EDTA vacutainer tubes. Peripheral blood mononuclear cells (PBM's) were separated from whole blood by using either LeucoPREP™ Brand Cell Separation Tubes (available from Becton Dickinson) or Ficoll-Paque® solution (available from Pharmacia LKB Biotechnology Inc, Piscataway, N.J.). The PBM's were suspended at 1×10^6/mL in RPMI 1640 media (available from GIBCO, Grand Island, N.Y.) containing 25 mM HEPES (N-2-hydroxyethylpiperazine-N′-2-ethanesulfonic acid) and L-glutamine (1% penicillin-streptomycin solution added) with 10% heat inactivated (56° C. for 30 minutes) autologous serum added. 200 μL portions of PBM suspension were added to 96 well (flat bottom) MicroTest III sterile tissue culture plates.
The compounds were solubilized in ethanol, dimethyl sulfoxide or tissue culture water then diluted with tissue culture water, 0.01N sodium hydroxide or 0.01N hydrochloric acid (The choice of solvent will depend on the chemical characteristics of the compound being tested.). Ethanol or DMSO concentration should not exceed a final concentration of 1% for addition to the culture wells. Compounds were initially tested in a concentration range of from about 0.1 μg/mL to about 5 μg/mL. Compounds which show induction at a concentration of 0.5 μg/mL were then tested in a wider concentration range.
The solution of test compound was added in a volume (less than or equal to 50 μL) to the wells containing 200 μL of diluted whole blood or of PBM's in media. Solvent and/or media was added to control wells (wells with no test compound) and as needed to adjust the final volume of each well to 250 μL. The plates were covered with plastic lids, vortexed gently and then incubated for 48 hours at 37° C. with a 5% carbon dioxide atmosphere.
Following incubation, the plates were covered with parafilm and then centrifuged at 1000 rpm for 10 to 15 minutes at 4° C. in a Damon IEC Model CRU-5000 centrifuge. Media (about 200 μL) was removed from 4 to 8 wells and pooled into 2 mL sterile freezing vials. Samples were maintained at −70° C. until analysis.
Interferon was determined by bioassay using A549 human lung carcinoma cells challenged with encephalomyocarditis. The details of the bioassay method have been described by G. L. Brennan and L. H. Kronenberg in “Automated Bioassay of Interferons in Micro-test Plates”, Biotechniques, June/July 78, 1983, incorporated herein by reference. Briefly stated the method is as follows: interferon dilutions and A549 cells are incubated at 37° C. for 12 to 24 hours. The incubated cells are infected with an inoculum of encephalomyocarditis virus. The infected cells are incubated for an additional period at 37° C. before quantifying for viral cytopathic effect. The viral cytopathic effect is quantified by staining followed by spectrophotometric absorbance measurements. Results are expressed as alpha reference units/mL based on the value obtained for NIH HU IF-L standard. The interferon was identified as essentially all interferon alpha by testing in checkerboard neutralization assays against rabbit anti-human interferon (beta) and goat anti-human interferon (alpha) using A549 cell monolayers challenged with encephalomyocarditis virus.

Compound | IFN induction (IFN; Dose Concentration 1.0 μM) | IFN induction (IFN; Dose Concentration 10.0 μM) | IFN induction (IFN; Dose Concentration 100.0 μM) | TNF induction (TNF; Dose Concentration 1.0 μM) | TNF induction (TNF; Dose Concentration 10.0 μM) | TNF induction (TNF; Dose Concentration 100.0 μM) | Interferon (α) Induction in Human Cells (interferon α; Dose Concentration 0.01 μg/mL) | Interferon (α) Induction in Human Cells (interferon α; Dose Concentration 0.05 μg/mL) | Interferon (α) Induction in Human Cells (interferon α; Dose Concentration 0.10 μg/mL) | Interferon (α) Induction in Human Cells (interferon α; Dose Concentration 0.50 μg/mL) | Interferon (α) Induction in Human Cells (interferon α; Dose Concentration 1.0 μg/mL) | Interferon (α) Induction in Human Cells (interferon α; Dose Concentration 5.0 μg/mL) | Interferon (α) Induction in Human Cells (interferon α; Dose Concentration 10.0 μg/mL) | Interferon (α) Induction in Human Cells (interferon α; Dose Concentration 25.0 μg/mL) | Interferon (α) Induction in Human Cells (interferon α; Dose Concentration 50.0 μg/mL) | IFN induction (IFN; Dose Concentration 0.1 μM) | TNF induction (TNF; Dose Concentration 0.1 μM)
CCCCc1nc2c(N)nc3c(c2n1CC(C)C)NCCC3 [Example 40, 6,7,8,9-Tetrahydro-2-butyl-1-(2-methylpropyl)-1H-imidazo[4,5-c][1,5]naphthyridin-4-amine] | + | + | ± | + | + | + | − | + | + | + | + | + | + | + | + |  | 
CCCCc1nc2c(N)nc3cccnc3c2n1CCNC(=O)Cc1ccc(SC)cc1 [Example 197] | − | + | + | + | + | + |  |  |  |  |  |  |  |  |  | − | −
CCCCCCCOc1ccc(C(=O)NCCCCn2c(CCCC)nc3c(N)nc4cccnc4c32)cc1 [Example 190] | + | + | − | + | + | − |  |  |  |  |  |  |  |  |  | + | −
CCCCc1nc2c(N)nc3cccnc3c2n1CCNC(=O)CCC(F)(F)F [Example 199] | − | + | + | − | + | + |  |  |  |  |  |  |  |  |  | + | −
CCCCc1nc2c(N)nc3cccnc3c2n1CCNS(=O)(=O)c1ccccc1 [Example 117, N^1-[4-(4-Amino-2-butyl-1H-imidazo[4,5-c][1,5]naphthyridin-1-yl)ethyl]benzenesulfonamide] | − | + | + | − | + | + |  |  |  |  |  |  |  |  |  | − | −
CCCCc1nc2c(N)nc3cccnc3c2n1CCNS(C)(=O)=O [Example 116, N^1-[4-(4-Amino-2-butyl-1H-imidazo[4,5-c][1,5]naphthyridin-1-yl)ethyl]methanesulfonamide] | + | + | + | + | + | + |  |  |  |  |  |  |  |  |  | − | −
CCCCc1nc2c(N)nc3cccnc3c2n1CCNC(=O)c1cccnc1Cl [Example 147] | + | + | + | − | + | + |  |  |  |  |  |  |  |  |  | − | −
CCCCc1nc2c(N)nc3cccnc3c2n1CCCCNC(=O)NC1CCCCC1 [Example 48, N-[4-(4-Amino-2-butyl-1H-imidazo[4,5-c][1,5]naphthyridin-1-yl)butyl]-N′-cyclohexylurea] | + | + | − | + | + | − |  |  |  |  |  |  |  |  |  | + | −
CCCCc1nc2c(N)nc3cccnc3c2n1CCNC(=O)c1cc(C(F)(F)F)cc(C(F)(F)F)c1 [Example 125] | + | + | + | − | + | + |  |  |  |  |  |  |  |  |  |  | 
CCCCc1nc2c(N)nc3cccnc3c2n1CCNC(=O)CCC(=O)c1cccs1 [Example 212] | + | + | + | + | + | + |  |  |  |  |  |  |  |  |  | − | −
CCCCc1nc2c(N)nc3cccnc3c2n1CCNC(=O)C1CC1 [Example 136] | + | + | + | − | + | + |  |  |  |  |  |  |  |  |  |  | 
CCCCc1nc2c(N)nc3cccnc3c2n1CCCCNC(=O)c1c(C)cc(C)cc1C [Example 180] | + | + | + | + | + | + |  |  |  |  |  |  |  |  |  | + | ±
CCCCc1nc2c(N)nc3cccnc3c2n1CCCCNC(=O)c1cc(OC)c(OC)c(OC)c1 [Example 162] | + | + | + | + | + | + |  |  |  |  |  |  |  |  |  | + | −
CCCCc1nc2c(N)nc3cccnc3c2n1CCNC(=O)c1c(OC)cccc1OC [Example 128] | ± | + | + | − | ± | + |  |  |  |  |  |  |  |  |  |  | 
CCCCc1nc2c(N)nc3cccnc3c2n1CCNC(=O)c1ccc([N+](=O)[O-])o1 [Example 146] | + | + | − | + | + | + |  |  |  |  |  |  |  |  |  | + | +
CCCCc1nc2c(N)nc3cccnc3c2n1CCCCNC(=O)Oc1ccccc1 [Example 50, Phenyl N-[4-(4-Amino-2-butyl-1H-imidazo[4,5-c][1,5]naphthyridin-1-yl)butyl]carbamate] | + | + | − | + | + | − |  |  |  |  |  |  |  |  |  |  | 
CCCCc1nc2c(N)nc3cccnc3c2n1CCCCNC(=O)OCc1ccccc1 [Example 56, Benzyl N-[4-(4-Amino-2-butyl-1H-imidazo[4,5-c][1,5]naphthyridin-1-yl)butyl]carbamate] | + | + | − | − | + | − |  |  |  |  |  |  |  |  |  | − | −
CCCCc1nc2c(N)nc3cccnc3c2n1CCNC(=O)Cc1ccc(OC)cc1 [Example 152] | − | + | + | − | + | + |  |  |  |  |  |  |  |  |  | − | −

Source: patent publication US7678918B2, “Intermediates for imidazonaphthyridines” (3M Innovative Properties Company, priority 1997, dated 2010)
